One series has as its system rat lung vasculature. Briefly: Rat lung histopathology (H&E sections, Heath-Edwards grading). The format is in vivo. The settings on record: Dahl SS rats, Hypoxia+SU5416+Sorafenib vs Hypoxia+SU5416, H/E sections. As for the experimental part:
The Heath-Edwards grading system grades pulmonary hypertension by microscopic features. The general classification is as follows:
(§1) Protocol includes an initial administration of SU5416 subcutaneously at 20 mg/kg followed daily by sorenfenib oral daily doses of 2.5 mg/kg. Some animals were exposed to chronic hypoxia (10% O2). The animals were divided into five experimental groups: hypoxia+sorafenib; hypoxia+SU5416+sorafenib, normoxia+vehicle control; Hypoxia+vehicle; and hypoxia+SU5416. PAP, RVSP, Echo, and DNA microarrays were used to measure various physiological and molecular biological parameters. FIG. 4 illustrates that hypoxia/SU5416-induces increases in right heart pressures and right heart hypertrophy (RV/LV+Septum).

For series [1], the system named is hypoxia-induced model of pulmonary hypertension in Dahl SS rats. Briefly: Hemodynamic study (pressures, RV/LV weights) in hypoxia/SU5416 model of pulmonary hypertension. It counts as in vivo, rat. The settings on record: for development of pulmonary hypertension (right ventricular and pulmonary artery pressures, right ventricle/left ventricular weights): hypoxia 10% FiO2, 3 weeks, SU5416 20 mg/kg once, sorafenib by gavage daily. The protocol:
As part of the spectrum of sorafenib's pharmacologic activity overlaps with SU5416, a study was performed to determine whether sorafenib had similar effects or with additional mechanisms of inhibitory activity could counteract the effects of SU5416. Dahl Salt Sensitive rats were divided into 5 groups: normoxia+vehicle (normal, healthy control), hypoxia+SU5416 (positive control), hypoxia+sorafenib (safety comparison with SU5416), and hypoxia+sorafenib+SU5416 (therapeutic activity assessment). Echocardiograms were performed on all rats at the start of the study. Except for the normoxia group, all rats were maintained in a hypoxia chamber with a partial pressure of oxygen of 10% FiO2 for the duration of the study. Rats in the two SU5416 groups received one subcutaneous injection of SU5416 at the start of the study (20 mg/kg). Stock sorafenib solutions were prepared every three days, crushing and dissolving sorafenib tablets in EL/ethanol (50:50; Sigma Cremophor EL, 95% ethyl alcohol) at final concentration of 4 mg/mL, protected from light exposure and stored at room temperature. Final dosing solutions were prepared on the day of use by dilution of the stock solution to 1 mg/mL with water and administered by gavage to the rats daily. […] Organ and blood specimens were obtained for further evaluation. […] RV 3DE measurements were also determined (diameters+area), A=RV major diameter, B=RV annulus diastolic diameter & area, C=RV at ⅓ RV major diameter & area, D=RV at ⅔ RV major diameter & area.
as §1
Fifteen Dahl Salt Sensitive strain rats were divided into 5 groups: normoxia+vehicle (normal, healthy control), hypoxia+vehicle (hypoxia control), hypoxia+SU5416 (positive control), hypoxia+sorafenib (safety comparison with SU5416), and hypoxia+sorafenib+SU5416 (therapeutic activity assessment). Echocardiograms were performed on all rats at the start of the experiment. Except for the normoxia group, all rats were maintained in a hypoxia chamber with a partial pressure of oxygen of 10% FiO2 for the duration of the experiment. Rats in the 2 SU5416 groups received one subcutaneous injection of SU5416 at the start of the experiment (20 mg/kg). Stock sorafenib solutions were prepared every three days, crushing and dissolving sorafenib tablets in EL/ethanol (50:50; Sigma Cremophor EL, 95% ethyl alcohol) at final concentration of 4 mg/mL, protected from light exposure and stored at room temperature. Final dosing solutions were prepared on the day of use by dilution of the stock solution to 1 mg/mL with water and administered by gavage to the rats daily. […] Organ and blood specimens were obtained for further evaluation.

The conditions of series [2]: cited from earlier work.
Where [3] appears, read: 3½ Wk hypoxia (10% FiO2), sorafenib daily 2.5 mg/Kg, SU5416 day zero 20 mg/kg, 2 experiments as one cohort.

Entries after “also recorded” stand apart in the source; their conditions may differ.

For `CNC(=O)c1cc(Oc2ccc(NC(=O)Nc3ccc(Cl)c(C(F)(F)F)c3)cc2)ccn1` [Sorafenib], the “remodeling of the lung vasculature (histopathology, Heath-Edwards grading)” value in the series with rat lung vasculature was “Prevents Remodeling”; in the series with rat lung vasculature (listed as sorafenib) it was “dramatic improvement”. Moreover, in series [1] (setting [3]), the “BP mmHg (+/−) SE” value is 97 +/− 4 mmHg. In addition, in series [1] (setting [3]), the “PA mmHg (+/−) SE” value is reported as 18 +/− 2 mmHg. The “RVSP mmHg (+/−) SE” value in series [1] (setting [3]) is 17 +/− 2 mmHg. Moreover, the “development of pulmonary hypertension (right ventricular and pulmonary artery pressures, right ventricle/left ventricular weights)” value in series [1] is “attenuated physiologic and histopathologic changes in PAH; also recorded: protect SU5416-treated hypoxia-exposed rats from pulmonary arterial hypertension”; in series [1] (listed as sorafenib), “prevents hypoxia+SU5416 induced pulmonary hypertension and remodeling; also recorded: no significant change in pressures or weights; also recorded: does not exacerbate hypoxia-induced hypertension”; in series [1] (listed as sorefenib), “did not develop evidence of PAH”. Also, the “right heart hypertrophy (RV/LV+Septum)” value in series [1] (hypoxia+SU5416, sorafenib oral daily 2.5 mg/kg) is recorded as “prevented hypoxia+SU5416 development of right heart hypertrophy”. Further, the MTD in series [2] (known MTD, oral) is recorded as 400 mg twice daily. Further, the “drug interactions with warfarin or digoxin” value in series [2] (previous sorafenib studies) is on record as “have not demonstrated known drug interactions”.

The values are drawn from US20090197922A1, “COMPOSITIONS AND METHODS FOR TREATING PULMONARY HYPERTENSION” (The University of Chicago, priority 2006, published 2009).
